In US10206399B2, “Herbicidal composition comprising uracil compound as active ingredient” (Dongbu Farm Hannong Co., Ltd., priority 2012, dated 2019):
Read-outs that look alike come from different tables or passages of the source.

Key:
[1] = test system: Aeschynomene indica; assay: whole plant or invertebrate; details: for pest or weed control at 25 g/ha: read-out: Data (measured value) Aeschynomene indica, 25 g/ha; for pest or weed control at 50 g/ha: read-out: Data (measured value) Aeschynomene indica, 50 g/ha; for pest or weed control at 100 g/ha: read-out: Data (measured value) Aeschynomene indica, 100 g/ha
Text: (§1) X is % damage by uracil compound (a) of formula 1 at the rate of application of p kg/ha; Y is % damage by conventional herbicidal compound (b) at the rate of application of q kg/ha; and E is the expected damage caused by compounds (a) and (b) at a rate of application of p and q kg/ha.
(§2) The expected activity for a given combination of two herbicides can be calculated using equation 1 above.

[2] = test system: Echinochloa crus; details: for plant mortality, measured value: Echinochloa crus; for Echinochloa crus mortality, measured value: 20 days after treatment
Text: as §1, §2

[3] = test system: Abutilon theophrasti; assay: whole plant or invertebrate; details: for pest or weed control at 25 g/ha: read-out: Data (measured value) Abutilon theophrasti, 25 g/ha; for pest or weed control at 50 g/ha: read-out: Data (measured value) Abutilon theophrasti, 50 g/ha; for pest or weed control at 100 g/ha: read-out: Data (measured value) Abutilon theophrasti, 100 g/ha
Text: as §1, §2

[4] = test system: Digitaria sanguinalis; details: for plant mortality, measured value: Digitaria sanguinalis; for Digitaria sanguinalis mortality, measured value: 20 days after treatment
Text: as §1, §2

[5] = test system: Xanthium spinosum; assay: whole plant or invertebrate; details: for pest or weed control at 25 g/ha: read-out: Data (measured value) Xanthium spinosum, 25 g/ha; for pest or weed control at 50 g/ha: read-out: Data (measured value) Xanthium spinosum, 50 g/ha; for pest or weed control at 100 g/ha: read-out: Data (measured value) Xanthium spinosum, 100 g/ha
Text: as §1, §2

[6] = read-out: plant mortality, measured value, 375 g/ha
[7] = read-out: plant mortality, measured value, 750 g/ha
[8] = read-out: plant mortality, measured value, 1500 g/ha
[9] = read-out: plant mortality, measured value, 175 g/ha
[10] = read-out: plant mortality, measured value, 350 g/ha
[11] = read-out: plant mortality, measured value, 700 g/ha
[12] = 480 h, read-out: Aeschynomene indica mortality, measured value
[13] = 480 h, read-out: Abutilon theophrasti mortality, measured value
[14] = 480 h, read-out: Xanthium spinosum mortality, measured value

Structure (SMILES): CCO/N=C(\CC)C1=C(O)CC(c2c(C)cc(C)cc2C)CC1=O (stereo not drawn) [Tralkoxydim]
- pest or weed control at 25 g/ha [1]: 0%
- pest or weed control at 50 g/ha [1]: 0%
- pest or weed control at 100 g/ha [1]: 0%
- Data (measured value) Echinochloa crus ([2]; 25 g/ha): 10
- Data (measured value) Echinochloa crus ([2]; 50 g/ha): 24
- Data (measured value) Echinochloa crus ([2]; 100 g/ha): 56
- pest or weed control at 25 g/ha [3]: 0%
- pest or weed control at 50 g/ha [3]: 0%
- pest or weed control at 100 g/ha [3]: 0%
- Data (measured value) Digitaria sanguinalis ([4]; 25 g/ha): 8
- Data (measured value) Digitaria sanguinalis ([4]; 50 g/ha): 21
- Data (measured value) Digitaria sanguinalis ([4]; 100 g/ha): 47
- pest or weed control at 25 g/ha [5]: 0%
- pest or weed control at 50 g/ha [5]: 0%
- pest or weed control at 100 g/ha [5]: 0%

Structure (SMILES): CCC(=O)Nc1ccc(Cl)c(Cl)c1 [Propanil]
- pest or weed control at 375 g/ha [1, 6]: 10%
- pest or weed control at 750 g/ha [1, 7]: 27%
- pest or weed control at 1500 g/ha [1, 8]: 56%
- plant mortality, measured value ([2]; 375 g/ha): 11
- plant mortality, measured value ([2]; 750 g/ha): 21
- plant mortality, measured value ([2]; 1500 g/ha): 46
- pest or weed control at 375 g/ha [3, 6]: 10%
- pest or weed control at 750 g/ha [3, 7]: 23%
- pest or weed control at 1500 g/ha [3, 8]: 56%
- plant mortality, measured value ([4]; 375 g/ha): 7
- plant mortality, measured value ([4]; 750 g/ha): 22
- plant mortality, measured value ([4]; 1500 g/ha): 45
- pest or weed control at 375 g/ha [5, 6]: 10%
- pest or weed control at 750 g/ha [5, 7]: 24%
- pest or weed control at 1500 g/ha [5, 8]: 58%

Structure (SMILES): Nc1cnn(-c2ccccc2)c(=O)c1Cl [Chloridazon]
- pest or weed control at 175 g/ha [1, 9]: 11%
- pest or weed control at 350 g/ha [1, 10]: 29%
- pest or weed control at 700 g/ha [1, 11]: 57%
- plant mortality, measured value ([2]; 175 g/ha): 13
- plant mortality, measured value ([2]; 350 g/ha): 27
- plant mortality, measured value ([2]; 700 g/ha): 54
- pest or weed control at 175 g/ha [3, 9]: 14%
- pest or weed control at 350 g/ha [3, 10]: 30%
- pest or weed control at 700 g/ha [3, 11]: 64%
- plant mortality, measured value ([4]; 175 g/ha): 14
- plant mortality, measured value ([4]; 350 g/ha): 28
- plant mortality, measured value ([4]; 700 g/ha): 63
- pest or weed control at 175 g/ha [5, 9]: 7%
- pest or weed control at 350 g/ha [5, 10]: 22%
- pest or weed control at 700 g/ha [5, 11]: 46%

Structure (SMILES): CC(Oc1ccc(Oc2nc3ccc(Cl)cc3o2)cc1)C(=O)O (stereo not drawn) [Fenoxaprop, reference compound]
- mortality at 25 g/ha [1, 12]: 0%
- mortality at 50 g/ha [1, 12]: 0%
- mortality at 100 g/ha [1, 12]: 0%
- Echinochloa crus mortality, measured value ([2]; 25 g/ha): 13%
- Echinochloa crus mortality, measured value ([2]; 50 g/ha): 31%
- Echinochloa crus mortality, measured value ([2]; 100 g/ha): 65%
- mortality at 25 g/ha [3, 13]: 0%
- mortality at 50 g/ha [3, 13]: 0%
- mortality at 100 g/ha [3, 13]: 0%
- Digitaria sanguinalis mortality, measured value ([4]; 25 g/ha): 13%
- Digitaria sanguinalis mortality, measured value ([4]; 50 g/ha): 32%
- Digitaria sanguinalis mortality, measured value ([4]; 100 g/ha): 64%
- mortality at 25 g/ha [5, 14]: 0%
- mortality at 50 g/ha [5, 14]: 0%
- mortality at 100 g/ha [5, 14]: 0%

Structure (SMILES): CCc1cnc(C2=NC(C)(C(C)C)C(=O)N2)c(C(=O)O)c1 (stereo not drawn) [Imazethapyr]
- pest or weed control at 25 g/ha [1]: 11%
- pest or weed control at 50 g/ha [1]: 25%
- pest or weed control at 100 g/ha [1]: 54%
- Data (measured value) Echinochloa crus ([2]; 25 g/ha): 11
- Data (measured value) Echinochloa crus ([2]; 50 g/ha): 26
- Data (measured value) Echinochloa crus ([2]; 100 g/ha): 53
- pest or weed control at 25 g/ha [3]: 9%
- pest or weed control at 50 g/ha [3]: 24%
- pest or weed control at 100 g/ha [3]: 58%
- Data (measured value) Digitaria sanguinalis ([4]; 25 g/ha): 11
- Data (measured value) Digitaria sanguinalis ([4]; 50 g/ha): 26
- Data (measured value) Digitaria sanguinalis ([4]; 100 g/ha): 62
- pest or weed control at 25 g/ha [5]: 9%
- pest or weed control at 50 g/ha [5]: 20%
- pest or weed control at 100 g/ha [5]: 47%
